# Data taken from patent publication US8304438B2, “Heteroarylacrylamides and their use as pharmaceuticals” (Sanofi, priority 2006, dated 2012).
# Where a name gives a salt, the structure may show the parent alone.
# System: eNOS promoter
# Test: Activation of eNOS transcription (eNOS promoter firefly luciferase reporter gene assay)
# Type: cell-based
# Settings: human endothelial cell line stable transfected with eNOS promoter-luciferase construct; 18 h incubation; EC50 determined graphically; read-out: EC50 values of transcription induction ratios (TIR)
# Method: Activation of eNOS transcription was measured as described in detail by L^1 et al., “Activation of protein kinase C alpha and/or epsilon enhances transcription of the human endothelial nitric oxide synthase gene”, Mol. Pharmacol. 53 (1998) 630. Briefly, a 3.5 kB long fragment 5′ of the starting codon of the eNOS gene was cloned, sequenced and cloned in firefly luciferase expression plasmids to monitor activation of the eNOS promoter by reporter gene activity. A human endothelial cell line stable transfected and expressing this promoter-reporter construct was used for compound testing. Cells were incubated for 18 h with the compounds.
# All compounds were dissolved in sterile dimethyl sulfoxide (DMSO). A final concentration of 0.5% DMSO in complete medium was allowed. Induction of reporter gene expression in these cells was measured using a standard luciferase assay system (Promega, Cat. No. E150) according to the manufacturer's instructions. Luciferase induction in cells incubated with compounds were compared to those incubated with solvent alone. The ratio of both activities (transcription induction ratio, TIR) was plotted as a function of compound concentration. Typically, TIR values started at low concentrations at a ratio of 1, indicating no compound effect, and extended up to a maximum TIR value TIR(max) which indicates the increase of the eNOS transcription. EC50 values of transcription induction ratios as a function of compound concentration were determined graphically.
row,Compound,EC50
1,"C/C(=C\C(=O)N(C)C)c1ccc(-c2ccccc2F)nc1 [Example 110, 3-[6-(2-Fluoro-phenyl)-pyridin-3-yl]-but-2-enoic Acid Dimethylamide Trifluoroacetic Acid Salt]",< 500 nM
2,"O=C(/C=C/c1ccc(-c2cc3ccccc3s2)nc1)N1CCCCC1 [Example 125, 3-(6-(Benzo[b]thiophen-2-yl)-pyridin-3-yl)-1-(piperidin-1-yl)-propenone]",500 to 5000 nM
3,"O=C(/C=C/c1cnc2ccccc2c1)N1CCCCC1 [Example 1, 1-(Piperidin-1-yl)-3-(quinolin-3-yl)-propenone]",500 to 5000 nM
4,"CC(C)N(C(=O)/C=C/c1nc(-c2ccc(F)cc2)cs1)C(C)C [Example 145, 3-[4-(4-Fluoro-phenyl)-thiazol-2-yl]-N,N-diisopropyl-acrylamide]",< 500 nM
5,"O=C(/C=C/c1ccc(-c2ccccc2OC(F)(F)F)o1)N1CCCCC1 [Example 13, 1-(Piperidin-1-yl)-3-[5-(2-trifluoromethoxy-phenyl)-furan-2-yl]-propenone]",500 to 5000 nM
6,"O=C(/C=C/c1cc(-c2ccccc2F)cs1)N1CCCCC1 [Example 15, 3-[4-(2-Fluoro-phenyl)-thiophen-2-yl]-1-(piperidin-1-yl)-propenone]",< 500 nM
7,"C/C(=C\C(=O)N1CCCCC1)c1cc(-c2ccccc2F)cs1 [Example 123, 3-[4-(2-Fluoro-phenyl)-thiophen-2-yl]-1-(piperidin-1-yl)-but-2-en-1-one]",500 to 5000 nM
8,"O=C(/C=C/c1ccc(Oc2ccc(F)cc2)nc1)N1CCCCC1 [Example 76, 3-[6-(4-Fluoro-phenoxy)-pyridin-3-yl]-1-(piperidin-1-yl)-propenone Trifluoroacetic Acid Salt]",500 to 5000 nM
9,"CC(C)(C)NC(=O)/C=C/c1nc(-c2ccc(F)cc2)cs1 [Example 146, N-tert-Butyl-3-[4-(4-fluoro-phenyl)-thiazol-2-yl]-acrylamide]",< 500 nM
10,"O=C(/C=C/c1ccc(-c2ccccc2F)s1)Nc1ccccc1 [Example 150, 3-[5-(2-Fluoro-phenyl)-thiophen-2-yl]-N-phenyl-acrylamide]",500 to 5000 nM
11,"O=C(/C=C/c1nc(-c2ccc(F)cc2)cs1)Nc1ccccn1 [Example 116, 3-[4-(4-Fluoro-phenyl)-thiazol-2-yl]-N-(pyridin-2-yl)-acrylamide]",500 to 5000 nM
